Test results as given in BindingDB's records for patent US20250382298 (Suzhou Genhouse Bio Co., 2025).

Target: T1, Kinesin-like protein KIF18A (Homo sapiens, UniProt Q8NI77)
T1 sequence (Q8NI77 whole entry): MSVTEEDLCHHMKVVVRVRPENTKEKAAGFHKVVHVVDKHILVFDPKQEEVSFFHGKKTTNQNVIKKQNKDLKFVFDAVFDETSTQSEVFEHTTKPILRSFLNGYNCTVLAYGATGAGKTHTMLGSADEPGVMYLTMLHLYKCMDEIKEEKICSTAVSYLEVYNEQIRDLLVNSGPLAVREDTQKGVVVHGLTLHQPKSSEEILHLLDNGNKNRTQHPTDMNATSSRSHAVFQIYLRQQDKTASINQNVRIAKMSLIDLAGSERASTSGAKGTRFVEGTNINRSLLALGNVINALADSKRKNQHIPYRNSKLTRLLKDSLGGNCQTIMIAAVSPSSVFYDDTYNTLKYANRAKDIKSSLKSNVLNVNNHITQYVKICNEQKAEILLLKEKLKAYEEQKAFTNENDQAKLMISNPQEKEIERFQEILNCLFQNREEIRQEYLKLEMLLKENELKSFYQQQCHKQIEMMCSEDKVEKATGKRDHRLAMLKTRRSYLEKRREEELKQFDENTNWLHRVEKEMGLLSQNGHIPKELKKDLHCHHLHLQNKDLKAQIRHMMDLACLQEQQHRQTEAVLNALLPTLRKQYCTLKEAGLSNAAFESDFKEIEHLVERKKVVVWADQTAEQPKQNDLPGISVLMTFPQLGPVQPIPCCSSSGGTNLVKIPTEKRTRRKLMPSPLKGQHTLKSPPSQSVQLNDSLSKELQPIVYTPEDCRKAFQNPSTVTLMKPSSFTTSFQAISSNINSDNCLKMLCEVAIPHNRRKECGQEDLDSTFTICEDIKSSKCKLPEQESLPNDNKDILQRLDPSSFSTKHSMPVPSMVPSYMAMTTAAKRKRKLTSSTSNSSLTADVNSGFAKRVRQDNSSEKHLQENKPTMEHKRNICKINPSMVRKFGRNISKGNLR
Test: Inhibitory Activity Assay
Description: In this experiment, an ADP-Glo kit was used to detect the inhibitory activity of the compounds against KIF18A. Each compound was prepared into a 10 mM stock solution with DMSO, which was then diluted at 1:5 to obtain 9 gradients with the initial final concentration set at 10 μM. Meanwhile, a control group and a blank group were also set up. The reaction buffer consisted of 15 mM Tris (pH 7.5), 10 mM MgCl2, and 0.01% Pluronic F-68. […] Finally, the ADP-Glo reagent was added to detect the luminescence intensity, where the luminescence intensity is directly proportional to the ADP content. Inhibition rate (%)=(1−Sample signal)/DMSO signal×100. Sample signal is the value of the compound group, and DMSO signal is the value of the DMSO control group. Then, the inhibition rate at each concentration was calculated, and the IC50 was determined by fitting using the GraphPadPrism 7.0 software.

Row | Compound | IC50
1 | CS(=O)(=O)Nc1ccc(C(=O)Nc2cc3cccnc3c(N3CCC(F)(F)CC3)n2)c(N2CCC3(CC2)CC3)c1 [US20250382298, Compound 32] | 0.117 µM
2 | O=C(Nc1cc2cccnc2c(N2CCC(F)(F)CC2)n1)c1ccc(NS(=O)(=O)CCO)cc1N1CCC2(CC1)CC2 [US20250382298, Compound 21] | 0.0107 µM
3 | O=C(Nc1cn2ccnc2c(N2CCC3(CC2)CC3)n1)c1ccc(NS(=O)(=O)CCO)cc1N1CCC2(CC1)CC2 [US20250382298, Compound 31] | 0.0553 µM
4 | O=C(Nc1cc2nccnc2c(N2CCC(F)(F)CC2)n1)c1ccc(NS(=O)(=O)CCO)cc1N1CCC2(CC1)CC2 [US20250382298, Compound 39] | 0.0322 µM
5 | O=C(Nc1cn2c(F)cnc2c(N2CCC(F)(F)CC2)n1)c1ccc(NS(=O)(=O)CCO)cc1N1CCC2(CC1)CC2 [US20250382298, Compound 34] | 0.0443 µM

Second part, the molecule after the results:

Row | IC50 | Compound
6 | 0.111 µM | CS(=O)(=O)Nc1ccc(C(=O)Nc2cc3cccnc3c(N3CCC(F)(F)CC3)n2)c(N2CC3CCC(C3)C2)c1 [US20250382298, Compound 33]
7 | 0.134 µM | CS(=O)(=O)Nc1ccc(C(=O)Nc2cc3nccnc3c(N3CCC(F)(F)CC3)n2)c(N2CC3CCC(C3)C2)c1 [US20250382298, Compound 72]
8 | 0.01 µM | O=C(Nc1cn2c(F)cnc2c(N2CCC(F)(F)CC2)n1)c1ccc(NS(=O)(=O)CCO)cc1N1CC2CCC(C2)C1 [US20250382298, Compound 51]
9 | 0.0268 µM | CS(=O)(=O)Nc1ccc(C(=O)Nc2cn3ccnc3c(N3CCC(F)(F)CC3)n2)c(N2CC3CCC(C3)C2)c1 [US20250382298, Compound 19]
